Each compound was assayed against IRAK4 (Homo sapiens (Human), UniProt Q9NWZ3) (assay: In vitro IRAK4 phosphorylation activity assay). Details: [γ-33P]-ATP, myelin basic protein substrate, 40 minutes at room temperature; categories.
Format: biochemical
Method: In vitro IRAK4 analysis was performed using N-(1H-imidazol-2-yl)benzamide compounds according to the present invention. All compounds were prepared by dissolving in DMSO. N-(1H-imidazol-2-yl)benzamide compound according to the present invention and other elements for the reaction were added to an assay well. In the standard Kinase Profiler service the preincubation step between the N-(1H-imidazol-2-yl)benzamide compound and kinase was not performed before the reaction.
To the positive control well, all reactants except for the N-(1H-imidazol-2-yl)benzamide compound according to the present invention were added, and DMSO was added to remove the solvent effect. A known control inhibitor having the following structure was added to the blank wells to inhibit kinase activity and establish a base-line.
IRAK4 was incubated with 8 mM MOPS pH 7.0, 0.2 mM EDTA, 0.33 mg/mL myelin basic protein, 10 mM magnesium acetate and [γ-33P]-ATP (specific activity approx. 500 cpm/pmol, concentration as required). The reaction was initiated by the addition of the MgATP mix. After incubation for 40 minutes at room temperature, the reaction was stopped by the addition of 3% phosphoric acid solution. 10 μL of the reaction was then spotted onto a P30 filtermat and washed three times for 5 minutes in 75 mM phosphoric acid and once in methanol prior to drying and scintillation counting.
The results are shown in Table 26 below, where the phosphorylation activity of IC50 values for IRAK4 is shown in categories (A: <50 nM, B: 50-100 nM, C: >100 nM).

Sequence of IRAK4 (Q9NWZ3 whole entry): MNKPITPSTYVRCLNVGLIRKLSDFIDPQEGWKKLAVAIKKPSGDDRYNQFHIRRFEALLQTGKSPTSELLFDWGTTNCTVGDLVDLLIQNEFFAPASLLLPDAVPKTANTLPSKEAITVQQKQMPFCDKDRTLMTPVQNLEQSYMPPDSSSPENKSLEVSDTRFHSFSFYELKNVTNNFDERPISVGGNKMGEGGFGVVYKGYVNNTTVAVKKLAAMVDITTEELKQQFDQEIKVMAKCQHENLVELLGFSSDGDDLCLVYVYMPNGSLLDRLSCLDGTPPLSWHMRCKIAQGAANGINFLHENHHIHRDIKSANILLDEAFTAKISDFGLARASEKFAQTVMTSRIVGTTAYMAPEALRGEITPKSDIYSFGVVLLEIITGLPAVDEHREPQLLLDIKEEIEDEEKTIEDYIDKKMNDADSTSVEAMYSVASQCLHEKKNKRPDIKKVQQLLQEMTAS

Compared with `Cn1cc(-c2cccc(C(=O)Nc3nc(CCCC(=O)NCC4CCOCC4)cn3-c3ccccc3)c2)cn1` [Example 172, 3-(1-methyl-1H-pyrazol-4-yl)-N-(4-(4-oxo-4-(((tetrahydro-2H-pyran-4-yl)methyl)amino)butyl)-1-phenyl-1H-imidazol-2-yl)benzamide], `Cn1cc(-c2cccc(C(=O)Nc3nc(CCCC(=O)NCCN4CCOCC4)cn3-c3ccccc3)c2)cn1` [Example 184, 3-(1-methyl-1H-pyrazol-4-yl)-N-(4-(4-((2-morpholinoethyl)amino)-4-oxobutyl)-1-phenyl-1H-imidazol-2-yl)benzamide] is higher in IC50: < 50 nM for the first, > 100 nM for the second.

First: COC[C@H]1CCCN1C(=O)CCc1cn(-c2ccccc2)c(NC(=O)c2cccc(-c3cn[nH]c3)c2)n1 [Example 20, (R)—N-(4-(3-(2-(methoxymethyl)pyrrolidin-1-yl)-3-oxopropyl)-1-phenyl-1H-imidazol-2-yl)-3-(1H-pyrazol-4-yl)benzamide]
Second: COC[C@@H]1CCCN1C(=O)Cc1cn(-c2ccccc2)c(NC(=O)c2cccc(-c3cn[nH]c3)c2)n1 [Example 46, (S)—N-(4-(2-(2-(methoxymethyl)pyrrolidin-1-yl)-2-oxoethyl)-1-phenyl-1H-imidazol-2-yl)-3-(1H-pyrazol-4-yl)benzamide]
The IC50 of the first is higher: > 100 nM for the first, 50 to 100 nM for the second.

`O=C(Nc1nc(CCCCN2CCOCC2)cn1-c1ccccc1)c1cccc(-c2cn[nH]c2)c1` [Example 114, N-(4-(4-morpholinobutyl)-1-phenyl-1H-imidazol-2-yl)-3-(1H-pyrazol-4-yl)benzamide] and `O=C(Nc1nc(CCCN2CCSCC2)cn1-c1ccccc1)c1cccc(-c2cn[nH]c2)c1` [Example 110, N-(1-phenyl-4-(3-thiomorpholinopropyl)-1H-imidazol-2-yl)-3-(1H-pyrazol-4-yl)benzamide] cannot be ordered by IC50: < 50 nM for the first, < 50 nM for the second.

`CN1CCCN(C(=O)CCc2cn(-c3ccccc3)c(NC(=O)c3cccc(-c4cnn(C)c4)c3)n2)CC1` [Example 195, N-(4-(3-(4-methyl-1,4-diazepan-1-yl)-3-oxopropyl)-1-phenyl-1H-imidazol-2-yl)-3-(1-methyl-1H-pyrazol-4-yl)benzamide] and `CC(C)N1CCN(C(=O)CCCc2cn(-c3ccccc3)c(NC(=O)c3cccc(-c4cnn(C)c4)c3)n2)CC1` [Example 145, N-(4-(4-(4-isopropylpiperazin-1-yl)-4-oxobutyl)-1-phenyl-1H-imidazol-2-yl)-3-(1-methyl-1H-pyrazol-4-yl)benzamide] cannot be ordered by IC50: < 50 nM for the first, < 50 nM for the second.

`C[C@H]1CCCCN1C(=O)CCCCCc1cn(-c2ccccc2)c(NC(=O)c2cccc(-c3cn[nH]c3)c2)n1` [Example 95, (S)—N-(4-(6-(2-methylpiperidin-1-yl)-6-oxohexyl)-1-phenyl-1H-imidazol-2-yl)-3-(1H-pyrazol-4-yl)benzamide] and `O=C(Nc1nc(CCCCC(=O)N2CCCCC2)cn1-c1ccccc1)c1cccc(-c2cn[nH]c2)c1` [Example 79, N-(4-(5-oxo-5-(piperidin-1-yl)pentyl)-1-phenyl-1H-imidazol-2-yl)-3-(1H-pyrazol-4-yl)benzamide] cannot be ordered by IC50: < 50 nM for the first, < 50 nM for the second.

`O=C(Nc1nc(CCC[N+]2([O-])CCOCC2)cn1-c1ccccc1)c1cccc(-c2cn[nH]c2)c1` [Example 126, 4-(3-(2-(3-(1H-pyrazol-4-yl)benzamido)-1-phenyl-1H-imidazol-4-yl)propyl)morpholine 4-oxide] and `O=C(Nc1nc(CCCN2CCCCC2)cn1-c1ccccc1)c1cccc(-c2cn[nH]c2)c1` [Example 106, N-(1-phenyl-4-(3-(piperidin-1-yl)propyl)-1H-imidazol-2-yl)-3-(1H-pyrazol-4-yl)benzamide] cannot be ordered by IC50: < 50 nM for the first, < 50 nM for the second.

`O=C(Nc1nc(CCCC(=O)N2CCCCC2)cn1-c1ccccc1)c1cccc(-c2ccc3[nH]ncc3c2)c1` [Example 246, 3-(1H-indazol-5-yl)-N-(4-(4-oxo-4-(piperidin-1-yl)butyl)-1-phenyl-1H-imidazol-2-yl)benzamide] and `O=C(Nc1nc(CCCC(=O)N2CCCCC2)cn1-c1ccccc1)c1cccc(-c2cn[nH]c2)c1` [Example 59, N-(4-(4-oxo-4-(piperidin-1-yl)butyl)-1-phenyl-1H-imidazol-2-yl)-3-(1H-pyrazol-4-yl)benzamide] cannot be ordered by IC50: < 50 nM for the first, < 50 nM for the second.

`Cn1cc(-c2cccc(C(=O)Nc3nc(CCCC(=O)N4CCC[C@H](N)C4)cn3-c3ccccc3)c2)cn1` [Example 211, (S)—N-(4-(4-(3-aminopiperidin-1-yl)-4-oxobutyl)-1-phenyl-1H-imidazol-2-yl)-3-(1-methyl-1H-pyrazol-4-yl)benzamide] and `Cn1cc(-c2cccc(C(=O)Nc3nc(CCCC(=O)N4CC[C@@H](N)C4)cn3-c3ccccc3)c2)cn1` [Example 212, (R)—N-(4-(4-(3-aminopyrrolidin-1-yl)-4-oxobutyl)-1-phenyl-1H-imidazol-2-yl)-3-(1-methyl-1H-pyrazol-4-yl)benzamide] cannot be ordered by IC50: < 50 nM for the first, < 50 nM for the second.

First: O=C(Nc1nc(CCC(=O)N2CCCC2)cn1-c1ccccc1)c1cccc(-c2cn[nH]c2)c1 [Example 28, N-(4-(3-oxo-3-(pyrrolidin-1-yl)propyl)-1-phenyl-1H-imidazol-2-yl)-3-(1H-pyrazol-4-yl)benzamide]
Second: O=C(Nc1nc(CCC(=O)N2CCCC[C@@H]2C(F)(F)F)cn1-c1ccccc1)c1cccc(-c2cn[nH]c2)c1 [Example 39, (R)—N-(4-(3-oxo-3-(2-(trifluoromethyl)piperidin-1-yl)propyl)-1-phenyl-1H-imidazol-2-yl)-3-(1H-pyrazol-4-yl)benzamide]
The IC50 of the first is lower: < 50 nM for the first, 50 to 100 nM for the second.

First: CNC(=O)Cc1cn(-c2ccccc2)c(NC(=O)c2cccc(-c3ccncc3)c2)n1 [Example 265, N-(4-(2-(methylamino)-2-oxoethyl)-1-phenyl-1H-imidazol-2-yl)-3-(pyridin-4-yl)benzamide]
Second: COC(=O)CCCc1cn(-c2ccccc2)c(NC(=O)c2cccc(-c3cn[nH]c3)c2)n1 [Example 58, methyl 4-(2-(3-(1H-pyrazol-4-yl)benzamido)-1-phenyl-1H-imidazol-4-yl)butanoate]
The IC50 of the first is higher: > 100 nM for the first, < 50 nM for the second. The second is the more potent here.

Going from `Nc1n[nH]cc1-c1cccc(C(=O)Nc2nc(CCC(=O)Nc3ccccc3)cn2-c2ccccc2)c1` [Example 2, 3-(3-amino-1H-pyrazol-4-yl)-N-(4-(3-oxo-3-(phenylamino)propyl)-1-phenyl-1H-imidazol-2-yl)benzamide] to `O=C(CCCc1cn(-c2ccccc2)c(NC(=O)c2cccc(-c3cn[nH]c3)c2)n1)NC1CCC1` [Example 69, N-(4-(4-(cyclobutylamino)-4-oxobutyl)-1-phenyl-1H-imidazol-2-yl)-3-(1H-pyrazol-4-yl)benzamide], the IC50 falls from > 100 nM to < 50 nM. The second is the more potent here.

`Cn1cc(-c2cccc(C(=O)Nc3nc(CCCCCCNC(=O)C4CC4)cn3-c3ccccc3)c2)cn1` [Example 228, N-(4-(6-(cyclopropanecarboxamido)hexyl)-1-phenyl-1H-imidazol-2-yl)-3-(1-methyl-1H-pyrazol-4-yl)benzamide] and `Cn1cc(-c2cccc(C(=O)Nc3nc(CCCCCCN4CCCCCC4)cn3-c3ccccc3)c2)cn1` [Example 223, N-(4-(6-(azepan-1-yl)hexyl)-1-phenyl-1H-imidazol-2-yl)-3-(1-methyl-1H-pyrazol-4-yl)benzamide] cannot be ordered by IC50: < 50 nM for the first, < 50 nM for the second.

`CN(C)C1CCN(C(=O)CCCc2cn(-c3ccccc3)c(NC(=O)c3cccc(-c4ccc5ncsc5c4)c3)n2)CC1` [Example 281, 3-(benzo[d]thiazol-6-yl)-N-(4-(4-(4-(dimethylamino)piperidin-1-yl)-4-oxobutyl)-1-phenyl-1H-imidazol-2-yl)benzamide] and `CN(C)C1CCN(C(=O)CCCCCc2cn(-c3ccccc3)c(NC(=O)c3cccc(-c4ccc5ncsc5c4)c3)n2)CC1` [Example 287, 3-(benzo[d]thiazol-6-yl)-N-(4-(6-(4-(dimethylamino)piperidin-1-yl)-6-oxohexyl)-1-phenyl-1H-imidazol-2-yl)benzamide] cannot be ordered by IC50: < 50 nM for the first, < 50 nM for the second.

`O=C(Nc1nc(CCCC(=O)N2CCCCC2)cn1-c1ccccc1)c1cccc(-c2cn[nH]c2F)c1` [Example 231, 3-(5-fluoro-1H-pyrazol-4-yl)-N-(4-(4-oxo-4-(piperidin-1-yl)butyl)-1-phenyl-1H-imidazol-2-yl)benzamide] and `Cn1cc(-c2cccc(C(=O)Nc3nc(CCCC(=O)N4CCC(O)CC4)cn3-c3ccccc3)c2)cn1` [Example 169, N-(4-(4-(4-hydroxypiperidin-1-yl)-4-oxobutyl)-1-phenyl-1H-imidazol-2-yl)-3-(1-methyl-1H-pyrazol-4-yl)benzamide] cannot be ordered by IC50: < 50 nM for the first, < 50 nM for the second.

Compared with `Cn1cc(-c2cccc(C(=O)Nc3nc(CCCC(=O)NC4CCNCC4)cn3-c3ccccc3)c2)cn1` [Example 214, 3-(1-methyl-1H-pyrazol-4-yl)-N-(4-(4-oxo-4-(piperidin-4-ylamino)butyl)-1-phenyl-1H-imidazol-2-yl)benzamide], `O=C(CCCc1cn(-c2ccccc2)c(NC(=O)c2cccc(-c3ccc4ncsc4c3)c2)n1)NC1CC1` [Example 279, 3-(benzo[d]thiazol-6-yl)-N-(4-(4-(cyclopropylamino)-4-oxobutyl)-1-phenyl-1H-imidazol-2-yl)benzamide] is lower in IC50: > 100 nM for the first, < 50 nM for the second. The second is the more potent here.

`COC[C@@H]1CCCN1NC(=O)CCc1cn(-c2ccccc2)c(NC(=O)c2cccc(-c3cn[nH]c3)c2)n1` [Example 13, (S)—N-(4-(3-((2-(methoxymethyl)pyrrolidin-1-yl)amino)-3-oxopropyl)-1-phenyl-1H-imidazol-2-yl)-3-(1H-pyrazol-4-yl)benzamide] gave an IC50 of 50 to 100 nM.

— patent US12534452B2, “N-(1H-imidazol-2-yl)benzamide compound and pharmaceutical composition comprising the same as active ingredient” (KAINOS MEDICINE, INC., priority 2019, dated 2026)
